Test results as given in patent US20070191337A1, “Annellated carbamyl-aza-heterocyclic compounds, a focused library, pharmaceutical compositions, and methods of preparing the same” (priority 2004, published 2007).

Legend:
Experiment in all cases: Anticancer activity: growth inhibition in tissue culture (Alamar Blue)
Assay type in all cases: cell-based
[1] = tested on: T-47D (tumor of the mammary gland); conditions: T-47D cells, 30 μM, 48 hours, Alamar Blue fluorescence; result in words
Experimental: (§1) A focused library was compiled to include compounds of general formula 1, as shown in Tables 1.01 to 1.23, and tested for anticancer activity. Anticancer activity of the compounds was measured by their capacity to kill cancerous cells in a tissue culture. Three cell lines representing three types of cancerous tumors were chosen, in particular: DLD-1 (adenocarcinoma of the rectum), DU-145 ([…]), and T-47D (tumor of the mammary gland). All the cell cultures were received from the American Tissue Culture Collection (ATCC). The efficiency of the compounds was assessed by measuring the number of […] cells following treatment with the test compounds over 48 hours. The cells were seeded at a concentration of 5*10^3 cells per hole of a standard 96-hole plate and left overnight for cells to be attached to the hole bottom. Whereupon the test compounds were added to the cells at an ultimate concentration of 30 μM, and the plates were left for 48 hours in an incubator at 37° C. maintaining the 5% CO2/95% air atmosphere at 100% humidity. At the end of the experiment, the medium with the compounds was sucked out of all the holes, and the holes were rinsed twice with physiological solution. […] of Alamar Blue solution was added to each hole, and fluorescence (λex=531 nm, λem=589 nm) was measured immediately after addition and 2 hours thereafter. The rate of fluorescence growth was proportional to the number of cells that survived incubation with the test compounds [John O'Brien, Ian Wilson, Terry Orton and Francois Pognan, “Investigation of the Alamar Blue (resazurin) Fluorescent Dye for the Assessment of Mammalian Cell Cytotoxicity.” Eur. J. Biochem. 2000,b 267, 5421-5426]. The proportion of cell growth suppression was found from the following equation: % of growth inhibition=((ΔΦk−ΔΦi)/ΔΦk)*100%, wherein: ΔΦ means increase in fluorescence over […] following addition of the Alamar Blue solution, and the subscripts […] and i mean, respectively, control cells (grown without any compounds added) and experimental cells (grown in the presence of test compounds).

[2] = tested on: DU-145 (carcinoma of the brain); conditions: DU-145 cells, 30 μM, 48 hours, Alamar Blue fluorescence; result in words
Experimental: as §1

[3] = tested on: DLD-1 (adenocarcinoma of the rectum); conditions: DLD-1 cells, 30 μM, 48 hours, Alamar Blue fluorescence; result in words
Experimental: as §1

CCc1ccc(-c2cc3n(n2)CC(C)(C(=O)NC2CCCCC2)N(CCN2CCCC2)C3=O)cc1 (stereo not drawn) [1.5(3){50}, cyclohexylamide of 6-methyl-4-oxo-5-(2-pyrrolidin-1-yl-ethyl)-2-(4-ethylphenyl)-4,5,6,7-tetrahydropyrazolo[1,5-a]pyrazine-6-carbonic acid]
suppression of tumor cell growth (% of growth inhibition) [1]: equally good at suppressing cell growth in all three cancer tumors | suppression of tumor cell growth (% of growth inhibition) [2]: equally good at suppressing cell growth in all three cancer tumors | suppression of tumor cell growth (% of growth inhibition) [3]: equally good at suppressing cell growth in all three cancer tumors
